Data from ChEMBL document CHEMBL1140665, “Eco-friendly synthesis and study of new plant growth promoters: 3,3'-Diindolylmethane and its derivatives” (2007).

Tests used:
Format in all cases: functional
Oryza sativa [1] = assay: Growth promoting activity in Oryza sativa assessed as shoot length at 31.25 ppm on day 5
Oryza sativa [2] = assay: Growth promoting activity in Oryza sativa assessed as root length at 125 ppm on day 5
Oryza sativa [3] = assay: Growth promoting activity in Oryza sativa assessed as shoot length at 250 ppm on day 5
Oryza sativa [4] = assay: Growth promoting activity in Oryza sativa assessed as shoot length at 1000 ppm on day 5
Oryza sativa [5] = assay: Growth promoting activity in Oryza sativa assessed as root length at 250 ppm on day 5
Oryza sativa [6] = assay: Growth promoting activity in Oryza sativa assessed as shoot length at 125 ppm on day 5
Oryza sativa [7] = assay: Growth promoting activity in Oryza sativa assessed as root length at 500 ppm on day 5
Oryza sativa [8] = assay: Growth promoting activity in Oryza sativa assessed as shoot length at 500 ppm on day 5
Oryza sativa [9] = assay: Growth promoting activity in Oryza sativa assessed as root length at 31.25 ppm on day 5
Oryza sativa [10] = assay: Growth promoting activity in Oryza sativa assessed as root length at 62.5 ppm on day 5
Oryza sativa [11] = assay: Growth promoting activity in Oryza sativa assessed as root length at 1000 ppm on day 5
Oryza sativa [12] = assay: Growth promoting activity in Oryza sativa assessed as shoot length at 62.5 ppm on day 5

Row | Structure (SMILES) | Activity (Oryza sativa [1]) [mm] | Activity (Oryza sativa [2]) [mm] | Activity (Oryza sativa [3]) [mm] | Activity (Oryza sativa [4]) [mm] | Activity (Oryza sativa [5]) [mm] | Activity (Oryza sativa [6]) [mm] | Activity (Oryza sativa [7]) [mm] | Activity (Oryza sativa [8]) [mm] | Activity (Oryza sativa [9]) [mm] | Activity (Oryza sativa [10]) [mm] | Activity (Oryza sativa [11]) [mm] | Activity (Oryza sativa [12]) [mm]
1 | Cn1cc(Cc2cn(C)c3ccccc23)c2ccccc21 | 9.2 | 25.4 | 10.3 | 6.1 | 22.52 | 12.2 | 19.7 | 8.37 | 20.4 | 23.5 | 16.72 | 10.7
2 | COc1ccc2[nH]cc(Cc3c[nH]c4ccc(OC)cc34)c2c1 | 13.4 | 33.8 | 15.23 | 11.6 | 29.42 | 17.6 | 26.5 | 13.4 | 28.4 | 30.6 | 23.62 | 15.3
3 | Brc1ccc2[nH]cc(Cc3c[nH]c4ccc(Br)cc34)c2c1 | 9.5 | 23.2 | 10.7 | 6.7 | 19.72 | 12.7 | 16.6 | 8.53 | 18.6 | 21.1 | 13.8 | 11
4 | Cn1cc(Cc2cn(C)c3ccc(Br)cc23)c2cc(Br)ccc21 | 9.05 | 22.6 | 9.72 | 5.92 | 18.56 | 11.4 | 15.9 | 8.12 | 16.8 | 19.6 | 12.9 | 10.1
5 | Cc1c(Cc2c(C)n(C)c3ccccc23)c2ccccc2n1C | 14.7 | 39.4 | 16.8 | 12 | 35.42 | 18.7 | 33.4 | 14.7 | 34.2 | 36.4 | 30.72 | 16.4
6 | Cn1cc(Cc2cn(C)c3ccc([N+](=O)[O-])cc23)c2cc([N+](=O)[O-])ccc21 | 8.87 | 21.4 | 9.56 | 5.76 | 18.16 | 11 | 15.2 | 7.82 | 16.2 | 18.9 | 12.12 | 9.96
7 | COc1ccc2c(c1)c(Cc1cn(C)c3ccc(OC)cc13)cn2C | 9.78 | 30.4 | 11.42 | 7.8 | 26.72 | 13.6 | 23.3 | 9.66 | 25.7 | 28.2 | 20.78 | 11.5
8 | c1ccc(-c2[nH]c3ccccc3c2Cc2c(-c3ccccc3)[nH]c3ccccc23)cc1 | 15.2 | 38.7 | 17.32 | 12.9 | 34.2 | 19.5 | 32.6 | 15.5 | 33.6 | 35.9 | 29.76 | 17.4
9 | Cc1[nH]c2ccccc2c1Cc1c(C)[nH]c2ccccc12 | 16.4 | 46.5 | 18.57 | 13.3 | 40.66 | 21.1 | 38.5 | 16.3 | 40.2 | 42.8 | 35.12 | 19.6
10 | Cn1c(-c2ccccc2)c(Cc2c(-c3ccccc3)n(C)c3ccccc23)c2ccccc21 | 13.8 | 34.5 | 15.01 | 10.8 | 30.27 | 17.2 | 28.2 | 13.6 | 29.6 | 31.2 | 25.6 | 15.4
11 | c1ccc2c(Cc3c[nH]c4ccccc34)c[nH]c2c1 [ARUNDINE] | 11.2 | 29.5 | – | 8.45 | – | 15.7 | 22.4 | 10.9 | 24.6 | 26.3 | – | 13.4
12 | O=C(O)Cc1c[nH]c2ccccc12 [INDOLE-3-ACETIC ACID] | 8.72 | 20.3 | – | 5.28 | – | 10.6 | 14.4 | 7.66 | 15.6 | 18.7 | – | 9.81
